Experimental data as given in PubChem BioAssay AID1259407 (Chemical Carcinogenesis Research Information System (CCRIS), 2018).
Calls of active or inactive are those of the source. How the calls were made is not given here.

Tested on: CCRIS mutagenicity, Ames/micronucleus/aberration tests
Test: CCRIS mutagenicity studies
[1] = Test System: AMES SALMONELLA TYPHIMURIUM, Strain/Indicator: TA98, Metabolic Activation: NONE, Method: STANDARD PLATE
[2] = Test System: AMES SALMONELLA TYPHIMURIUM, Strain/Indicator: TA98, Metabolic Activation: RAT, LIVER, S-9, AROCLOR 1254, Method: STANDARD PLATE
[3] = Test System: AMES SALMONELLA TYPHIMURIUM, Strain/Indicator: TA100, Metabolic Activation: NONE, Method: STANDARD PLATE
[4] = Test System: AMES SALMONELLA TYPHIMURIUM, Strain/Indicator: TA100, Metabolic Activation: RAT, LIVER, S-9, AROCLOR 1254, Method: STANDARD PLATE
[5] = Test System: AMES SALMONELLA TYPHIMURIUM, Strain/Indicator: TA98, Metabolic Activation: NONE, Method: PREINCUBATION
[6] = Test System: AMES SALMONELLA TYPHIMURIUM, Strain/Indicator: TA100, Metabolic Activation: NONE, Method: PREINCUBATION
[7] = Test System: AMES SALMONELLA TYPHIMURIUM, Strain/Indicator: TA1535, Metabolic Activation: NONE, Method: PREINCUBATION
[8] = Test System: AMES SALMONELLA TYPHIMURIUM, Strain/Indicator: TA1537, Metabolic Activation: NONE, Method: PREINCUBATION

CC(C)CCCCCCOC(=O)CCCCC(=O)OCCCCCCC(C)C
mutagenic call (Test System: AMES SALMONELLA TYPHIMURIUM, Strain/Indicator: TA98, Metabolic Activation: HAMSTER, LIVER, S-9, AROCLOR 1254, Method: STANDARD PLATE): inactive; negative | mutagenic call [1]: inactive; negative | mutagenic call [2]: inactive; negative | mutagenic call (Test System: AMES SALMONELLA TYPHIMURIUM, Strain/Indicator: TA100, Metabolic Activation: HAMSTER, LIVER, S-9, AROCLOR 1254, Method: STANDARD PLATE): inactive; negative | mutagenic call [3]: inactive; negative | mutagenic call [4]: inactive; negative | mutagenic call (Test System: AMES SALMONELLA TYPHIMURIUM, Strain/Indicator: TA1535, Metabolic Activation: HAMSTER, LIVER, S-9, AROCLOR 1254, Method: STANDARD PLATE): inactive; negative | mutagenic call (Test System: AMES SALMONELLA TYPHIMURIUM, Strain/Indicator: TA1535, Metabolic Activation: NONE, Method: STANDARD PLATE): inactive; negative | mutagenic call (Test System: AMES SALMONELLA TYPHIMURIUM, Strain/Indicator: TA1535, Metabolic Activation: RAT, LIVER, S-9, AROCLOR 1254, Method: STANDARD PLATE): inactive; negative | mutagenic call (Test System: AMES SALMONELLA TYPHIMURIUM, Strain/Indicator: TA1537, Metabolic Activation: HAMSTER, LIVER, S-9, AROCLOR 1254, Method: STANDARD PLATE): inactive; negative | mutagenic call (Test System: AMES SALMONELLA TYPHIMURIUM, Strain/Indicator: TA1537, Metabolic Activation: NONE, Method: STANDARD PLATE): inactive; negative | mutagenic call (Test System: AMES SALMONELLA TYPHIMURIUM, Strain/Indicator: TA1537, Metabolic Activation: RAT, LIVER, S-9, AROCLOR 1254, Method: STANDARD PLATE): inactive; negative | mutagenic call (Test System: AMES SALMONELLA TYPHIMURIUM, Strain/Indicator: TA1538, Metabolic Activation: HAMSTER, LIVER, S-9, AROCLOR 1254, Method: STANDARD PLATE): inactive; negative | mutagenic call (Test System: AMES SALMONELLA TYPHIMURIUM, Strain/Indicator: TA1538, Metabolic Activation: NONE, Method: STANDARD PLATE): inactive; negative | mutagenic call (Test System: AMES SALMONELLA TYPHIMURIUM, Strain/Indicator: TA1538, Metabolic Activation: RAT, LIVER, S-9, AROCLOR 1254, Method: STANDARD PLATE): inactive; negative | mutagenic call (Test System: MOUSE LYMPHOMA, Strain/Indicator: L5178Y (TK+/TK-), Metabolic Activation: NONE, Method: SUSPENSION/PLATE): inactive; negative | mutagenic call (Test System: MOUSE LYMPHOMA, Strain/Indicator: L5178Y (TK+/TK-), Metabolic Activation: RAT, LIVER, S-9, AROCLOR 1254, Method: SUSPENSION/PLATE): inactive; negative

O[C@@H]1[C@@H]2O[C@@H]2c2c(ccc3cc4ccc5ccccc5c4nc23)[C@H]1O
mutagenic call [5]: active; positive | mutagenic call [6]: active; positive | mutagenic call (Test System: CHINESE HAMSTER V-79, Strain/Indicator: V-79/8-AZAGUANINE, Metabolic Activation: NONE, Method: STANDARD PLATE): active; positive

C[n+]1c2ccccc2c(N)c2ccccc21
mutagenic call [7]: active; positive | mutagenic call (Test System: AMES SALMONELLA TYPHIMURIUM, Strain/Indicator: TA1535, Metabolic Activation: RAT, LIVER, S-9, TETRACHLOROBIPHENYL, Method: PREINCUBATION): active; positive | mutagenic call [8]: active; positive | mutagenic call (Test System: AMES SALMONELLA TYPHIMURIUM, Strain/Indicator: TA1537, Metabolic Activation: RAT, LIVER, S-9, TETRACHLOROBIPHENYL, Method: PREINCUBATION): active; positive | mutagenic call (Test System: AMES SALMONELLA TYPHIMURIUM, Strain/Indicator: TA1538, Metabolic Activation: NONE, Method: PREINCUBATION): inactive; negative | mutagenic call (Test System: AMES SALMONELLA TYPHIMURIUM, Strain/Indicator: TA1538, Metabolic Activation: RAT, LIVER, S-9, TETRACHLOROBIPHENYL, Method: PREINCUBATION): inactive; negative | mutagenic call (Test System: AMES SALMONELLA TYPHIMURIUM, Strain/Indicator: TA1977, Metabolic Activation: NONE, Method: PREINCUBATION): active; positive | mutagenic call (Test System: AMES SALMONELLA TYPHIMURIUM, Strain/Indicator: TA1977, Metabolic Activation: RAT, LIVER, S-9, TETRACHLOROBIPHENYL, Method: PREINCUBATION): active; positive

COP(=S)(OC)SCn1nnc2ccccc2c1=O
mutagenic call (End Point: In vitro Chromosomal aberrations, Test System: Human lymphocytes, Metabolic Activation: None): inactive; negative; lymphocytes from 1 male and 1 female; azinphos-methyl purity 92.9% | mutagenic call (End Point: In vitro Chromosomal aberrations, Test System: Human lymphocytes, Metabolic Activation: Rat, liver, S-9): active; positive (structural and ploidy); lymphocytes from 1 male and 1 female; azinphos | mutagenic call (Test System: AMES SALMONELLA TYPHIMURIUM, Strain/Indicator: TA98, Metabolic Activation: HAMSTER, LIVER, S-9, AROCLOR 1254 (10%), Method: PREINCUBATION): inactive; negative | mutagenic call [5]: inactive; negative | mutagenic call (Test System: AMES SALMONELLA TYPHIMURIUM, Strain/Indicator: TA98, Metabolic Activation: RAT, LIVER, S-9, AROCLOR 1254 (10%), Method: PREINCUBATION): active; positive | mutagenic call (Test System: AMES SALMONELLA TYPHIMURIUM, Strain/Indicator: TA100, Metabolic Activation: HAMSTER, LIVER, S-9, AROCLOR 1254 (10%), Method: PREINCUBATION): inactive; negative | mutagenic call [6]: inactive; negative | mutagenic call (Test System: AMES SALMONELLA TYPHIMURIUM, Strain/Indicator: TA100, Metabolic Activation: RAT, LIVER, S-9, AROCLOR 1254 (10%), Method: PREINCUBATION): inactive; negative | mutagenic call (Test System: AMES SALMONELLA TYPHIMURIUM, Strain/Indicator: TA1535, Metabolic Activation: HAMSTER, LIVER, S-9, AROCLOR 1254 (10%), Method: PREINCUBATION): inactive; negative | mutagenic call [7]: inactive; negative | mutagenic call (Test System: AMES SALMONELLA TYPHIMURIUM, Strain/Indicator: TA1535, Metabolic Activation: RAT, LIVER, S-9, AROCLOR 1254 (10%), Method: PREINCUBATION): inactive; negative | mutagenic call (Test System: AMES SALMONELLA TYPHIMURIUM, Strain/Indicator: TA1537, Metabolic Activation: HAMSTER, LIVER, S-9, AROCLOR 1254 (10%), Method: PREINCUBATION): inactive; negative | mutagenic call [8]: inactive; negative | mutagenic call (Test System: AMES SALMONELLA TYPHIMURIUM, Strain/Indicator: TA1537, Metabolic Activation: RAT, LIVER, S-9, AROCLOR 1254 (10%), Method: PREINCUBATION): inactive; negative

C[C@H](CCC(=O)O)[C@H]1CC[C@H]2[C@@H]3CC[C@@H]4C[C@H](O)CC[C@]4(C)[C@H]3CC(=O)[C@]12C
mutagenic call (Test System: AMES SALMONELLA TYPHIMURIUM, Strain/Indicator: TA98, Metabolic Activation: NONE, Method: FLUCTUATION TEST): inactive; negative | mutagenic call [5]: inactive; negative | mutagenic call (Test System: AMES SALMONELLA TYPHIMURIUM, Strain/Indicator: TA98, Metabolic Activation: RAT, LIVER, S-9, PCB, Method: PREINCUBATION): inactive; negative | mutagenic call (Test System: AMES SALMONELLA TYPHIMURIUM, Strain/Indicator: TA100, Metabolic Activation: NONE, Method: FLUCTUATION TEST): inactive; negative

Cn1c2ccccc2c2ccccc21
mutagenic call [1]: inactive; negative | mutagenic call (Test System: AMES SALMONELLA TYPHIMURIUM, Strain/Indicator: TA98, Metabolic Activation: RAT LIVER S-9, AROCLOR 1254, Method: STANDARD PLATE): inactive; negative | mutagenic call [3]: inactive; negative | mutagenic call (Test System: AMES SALMONELLA TYPHIMURIUM, Strain/Indicator: TA100, Metabolic Activation: RAT LIVER S-9, AROCLOR 1254, Method: STANDARD PLATE): active; positive | mutagenic call (Test System: UDS PRIMARY RAT HEPATOCYTES, Strain/Indicator: THY-INCORP, Metabolic Activation: NONE, Method: AUTORADIOGRAPHY): inactive; negative

O=C(Nc1ccccc1)c1csc([N+](=O)[O-])c1
mutagenic call (Test System: AMES SALMONELLA TYPHIMURIUM, Strain/Indicator: TA98(1,8-DNP6), Metabolic Activation: NONE, Method: STANDARD PLATE): active; positive | mutagenic call (Test System: AMES SALMONELLA TYPHIMURIUM, Strain/Indicator: TA98(NR), Metabolic Activation: NONE, Method: STANDARD PLATE): inactive; negative | mutagenic call [1]: active; positive | mutagenic call [3]: active; positive | mutagenic call (Test System: AMES SALMONELLA TYPHIMURIUM, Strain/Indicator: YG1021, Metabolic Activation: NONE, Method: STANDARD PLATE): active; positive | mutagenic call (Test System: AMES SALMONELLA TYPHIMURIUM, Strain/Indicator: YG1024, Metabolic Activation: NONE, Method: STANDARD PLATE): active; positive

CP1(C)=NP(C)(C)=NP(C)(C)=N1
mutagenic call [1]: inactive; negative | mutagenic call [2]: inactive; negative | mutagenic call [3]: inactive; negative | mutagenic call [4]: inactive; negative
